Like-named read-outs stand apart in the source and are kept apart here.
Assays:
HCT116 cells [1] = system: HCT116 cells
Protocol: Cells were seeded into 96 well plates (4,000 cells/well). […] The cells were then washed and re-cultured in fresh medium for 48 h. […] Formazan were generated by the addition of 100 μL DMSO and shaking for 30 min. The absorbance of samples was measured at 570 nm using a microtiter plate reader (BioTek).

SIRT1 = molecular target: T1, SIRT1 (Homo sapiens, UniProt Q96EB6); test: Cellular thermal shift assay in HCT116 cell lysates; assay type: binding; conditions: 20 μM
T1 construct: endogenous in cells; host or cells: HCT116
T1 sequence (Q96EB6 1-747): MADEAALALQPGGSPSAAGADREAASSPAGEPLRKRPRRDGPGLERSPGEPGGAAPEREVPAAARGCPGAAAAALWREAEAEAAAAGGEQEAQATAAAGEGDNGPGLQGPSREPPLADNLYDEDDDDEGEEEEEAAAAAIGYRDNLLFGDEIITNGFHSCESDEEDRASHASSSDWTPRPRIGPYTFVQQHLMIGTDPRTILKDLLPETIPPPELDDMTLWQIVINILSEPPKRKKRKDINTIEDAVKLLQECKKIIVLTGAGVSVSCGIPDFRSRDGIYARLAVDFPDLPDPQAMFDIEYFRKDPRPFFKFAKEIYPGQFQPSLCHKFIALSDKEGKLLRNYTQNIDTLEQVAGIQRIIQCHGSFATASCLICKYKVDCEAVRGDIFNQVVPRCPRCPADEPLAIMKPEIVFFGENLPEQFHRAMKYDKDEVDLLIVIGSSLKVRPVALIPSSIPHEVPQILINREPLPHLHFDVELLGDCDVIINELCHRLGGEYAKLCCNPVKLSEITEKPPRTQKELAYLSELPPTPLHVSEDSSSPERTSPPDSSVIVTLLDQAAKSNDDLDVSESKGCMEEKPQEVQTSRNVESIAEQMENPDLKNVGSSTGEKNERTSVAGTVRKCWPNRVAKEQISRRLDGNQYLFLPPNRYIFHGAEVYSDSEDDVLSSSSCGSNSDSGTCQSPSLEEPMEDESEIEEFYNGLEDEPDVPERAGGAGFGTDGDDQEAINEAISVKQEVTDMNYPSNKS
Protocol: (§1) Cellular thermal shift assays were performed according to previously reported methods with some modifications.[66] Briefly, HCT116 cells were lysed with RIPA buffer and incubated with 20 μM YZL-51N or DMSO for 1 h on ice. Subsequently, cell lysates were divided into 70 μL aliquots and heated individually at different temperatures for 4 min following by cooling on ice. The heated lysates were centrifuged, and 50 μL supernatants were taken for SDS-PAGE and immunoblotting analysis with the indicated antibodies.

SIRT7 [2] = molecular target: T2, SIRT7 (Homo sapiens, UniProt Q9NRC8); test: as above; assay type: binding; conditions: 20 μM
T2 construct: His-tagged full length SIRT7 protein expression from BL21 bacterial cells; His; made in house; host or cells: E. coli BL21
T2 sequence (Q9NRC8 1-400): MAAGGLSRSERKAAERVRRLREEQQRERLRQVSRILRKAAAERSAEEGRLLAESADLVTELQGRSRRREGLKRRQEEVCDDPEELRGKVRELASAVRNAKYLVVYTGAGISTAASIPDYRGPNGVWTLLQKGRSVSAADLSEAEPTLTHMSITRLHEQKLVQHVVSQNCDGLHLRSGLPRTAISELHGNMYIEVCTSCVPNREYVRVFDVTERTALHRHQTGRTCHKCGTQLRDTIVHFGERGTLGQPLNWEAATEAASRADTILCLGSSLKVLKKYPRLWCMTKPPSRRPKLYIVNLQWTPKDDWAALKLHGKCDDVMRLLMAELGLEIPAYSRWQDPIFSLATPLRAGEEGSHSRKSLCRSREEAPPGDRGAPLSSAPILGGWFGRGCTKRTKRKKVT
Protocol: as §1

SIRT7 [3] = molecular target: T2, SIRT7; test: Dot blot assay of SIRT7-mediated H3K18ac peptide deacetylation; assay type: biochemical
Text: To avoid the bias of the fluorescence assay, we also performed dot blot assays for the effects of natural compounds on SIRT7-mediated deacetylation of H3K18ac peptides in vitro (Figures S2A and S2B). In this system, SIRT7 mediated a dose-dependent deacetylation of H3K18ac (Figure 1D). […] Based on comparisons of all the candidates, we selected YZL-51N as the best for further investigation (Figure 1F). […] Thus, P. americana derived YZL-51N was confirmed as an identified SIRT7 inhibitor using parallel peptide-based screening platforms.
For dot blot assays, the reaction system containing 10 μg His-SIRT7, 0.5 mM NAD^+, 10 μM biotin-H3K18ac peptides and 50 μM potential compound was mixed and incubated at 37°C for 90 min. Samples were transferred to a polyvinylidene difluoride (PVDF) membrane, and then blocked with 5% skimmed milk. The blots were probed with H3K18ac primary antibody at RT for 2 h and then incubated with secondary antibody at RT for 1h. The bands were visualized using ECL substrates (Thermo Fisher, USA) on Tanon 5200SF Imaging System.

HCT116 cells [4] = test: Western blot of histone acetylation in treated cells; assay type: cell-based, human; conditions: HCT116, 0-40 μM, 8 h
Protocol: After drug treatment, the cells were lysed in RIPA lysis buffer. […] The membranes were then blocked with 5% skimmed milk in TBST and incubated overnight at 4°C with the primary antibodies followed by incubation with HRP-conjugated secondary antibodies. The protein bands were then detected using the ECL substrates and visualized with Tanon 5200SF Imaging System.

SIRT7 [5] = molecular target: T2, SIRT7; test: Fluor de Lys (FDL) SIRT7 deacetylase assay; assay type: biochemical
Text: To assess SIRT7 deacetylase activity using Fluor de Lys (FDL) assays, the peptide […]∗QLAGGK was synthesized and characterized as a substrate using fluorophore 7-methoxycoumarin-4-acetic acid (∗, MCA) (Figures 1A, S1A, and S1B). In the presence of both SIRT7 and NAD^+, a luminescence response was detected in the linear range (y = 31.88x + 2396, R^2 = 0.9742) (Figure 1B). We screened our preserved library of 242 natural products to find potential SIRT7 inhibitors.
For in vitro analysis of SIRT7 deacetylation, the reaction system contained 10 μg His-SIRT7, 0.5 mM NAD^+, 10 μM […](MCA)QLAGGK (synthesized by QYAOBIO; details in the supplementary files), 50 μM potential compound or 3 mM NAM, and assay buffer (10 mM Tris-HCl pH 8.0, 4 mM MgCl2, 0.2 mM DTT and 10% Glycerol). The deacetylation reactions were incubated at 37°C for 90 min. The fluorescence intensity was measured with a microplate reader (Synergy H4 Hybrid Reader, Biotek) at an excitation wavelength of 260 nm and detected at an emission spectrum of 300–600 nm. The IC50 values were calculated at 450 nm emission by GraphPad Prism 8.

Effect on the melting curve (SIRT1): no obvious effect
Shift in the melting curve (SIRT7 [2]): 5.2 °C
Rescue of H3K18 acetylation (SIRT7 [3]; dot blot screening, 50 μM): rescued H3K18 acetylation
EC50 (SIRT7 [3]; read-out: Dot blot assay H3K18ac rescue EC50): 13.5 µM
inhibition at 50 µM (SIRT7 [5]; 50 μM compound, 37°C, 90 min): 71.1%
IC50 (SIRT7 [5]; 0.5 mM NAD+, 10 μM peptide, read-out: FDL assay SIRT7 inhibition IC50): 12.7 µM
SMILES: COC(=O)/C(=C\C(=O)c1ccc(O)c(O)c1)c1ccc(O)c(O)c1 [YZL-51N]
Cell proliferation (%, Mean ± SD) (HCT116 cells [1]; single agent 5 μM): 94.8 ± 5.0%
Cell proliferation (%, Mean ± SD) (HCT116 cells [1]; single agent 10 μM): 86.9 ± 5.7%
Cell proliferation (%, Mean ± SD) (HCT116 cells [1]; single agent 20 μM): 76.4 ± 6.0%
Cell proliferation (%, Mean ± SD) (HCT116 cells [1]; single agent 40 μM): 42.8 ± 4.8%
Cell proliferation (%, Mean ± SD) (HCT116 cells [1]; single agent 80 μM): 29.9 ± 5.4%
Cell proliferation (%, Mean ± SD) (HCT116 cells [1]; single agent 160 μM): 17.7 ± 5.3%
Level of H3K18ac (HCT116 cells [4]): increased

— paper PMC11214487, “YZL-51N functions as a selective inhibitor of SIRT7 by NAD^+ competition to impede DNA damage repair” (iScience, 2024)
